Tests used:
HS181 cells = test: Single cell survival / cell adhesion, 1 day after plating (Example 1); type: cell-based, human
Protocol: (§1) Human ES cells were cultured on r-laminin-521-coated laboratory dishes in chemically defined O3 medium (described in Rodin et al., Nature Biotechnol., vol. 28, pp. 611-615 (2010)) at 37° C. in 5% CO2. Cells were routinely passed once every 10-12 days by exposure to Trypsin-EDTA solution (GIBCO Invitrogen) for 5 minutes at 37° C. They were then gently pipetted to break into single-cell suspension and defined trypsin inhibitor (GIBCO Invitrogen) was added. The cell suspension was centrifuged […], the supernatant discarded, the cell pellet resuspended in prewarmed O3 medium, and cells were then passed through a 40 μm sieve. After that cells were plated on new r-laminin-521-coated dishes at a concentration 30 Kcells/cm^2 (1:25-1:30 split ratio). Cells were fed once a day with fresh medium prewarmed in an incubator for 1 hour, except for the first day after a passage, when only a few drops of fresh medium were added. Control cells of the same line were cultured on Matrigel (BD Biosciences) in O3 medium as described in Rodin et al., Nature Biotechnol., vol. 28, pp. 611-615 (2010). Control cells were passaged in pieces.
Ninety-six-well tissue cell culture plates were coated overnight at 4° C. with sterile solutions of the ECM proteins mouse LN-111 (Invitrogen), human recombinant LN-511, and human recombinant LN-521, all at a concentration of 30 μg/ml (5 μg/cm^2). For control cells, BD Matrigel™ hESC qualified (BD Biosciences) was used according to the manufacturer's instructions.
The assay was performed as described (Extracellular Matrix Protocols, 2000). Briefly, 96-well plates were coated by extracellular matrix proteins as described above and blocked by O3 medium containing bovine serum albumin. The ES cells were plated at a cell density of 600 cell/mm^2 upon extracellular matrix-coated plates and were left to adhere for either 1 hour or 1 day at the cell incubator. Non-adherent cells were washed away, and adherent cells were fixed for 20 min by 5% glutaraldehyde, stained by 0.1% Crystal Violet.

human ES cells = test: Long-term culture with single cell dissociation passaging (Example 1); type: cell-based; details: for proliferation rate compared with Matrigel / classical methods: single cell suspension passaging vs passaging in clumps
Protocol: as §1

OCT4 = test: FACS analysis for Oct4; type: cell-based, human; details: after several single cell suspension passages, O3 medium without additives
Protocol: OCT4 expression was analyzed as described in Ludwig, T. E. et al. Derivation of human embryonic stem cells in defined conditions. Nat. Biotechnol. 24, 185-187 (2006). Cells were run on FACSCalibur Flow Cytometer (Becton Dickinson). Data were analyzed with CellQuest software (Becton Dickinson).

Oct4 and Nanog = test: Real-time quantitative RT-PCR of pluripotency markers (Example 1); type: cell-based, human; details: after several single cell dissociation passages
Protocol: Total RNA was isolated and cDNA was synthesized as described in Rodin et al., Nature Biotechnol., vol. 28, pp. 611-615 (2010). Real-time quantitative RT-PCR Taqman assays were performed using the Applied Biosystems 7300 Real-Time PCR System. All reactions were done in quadruplicate with predeveloped gene expression assay mix (Applied Biosystems) containing primers and a probe for the mRNA of interest. Additional reactions for each experiment included predeveloped gene expression assay mix for GAPDH, used to normalize the RNA input. All data were analyzed with 7300 System SDS Software version 1.4.

[1] = tested on: human iPS ChiPSW and CutB1.2 cells; test: Long-term self-renewal of human iPS cells on LN-521; type: cell-based; details: mTeSR1
hES cells [2] = test: In vivo imaging and migration assay; type: cell-based, human
Protocol: 24-well plates were coated by extracellular matrix proteins and blocked by O3 medium containing bovine serum albumin. The ES cells were plated at cell density of 30,000-40,000 cells/cm^2 onto extracellular matrix-coated plates and left to adhere for half an hour in a cell incubator. After that, the plate was transferred into high content imaging system Operetta (PerkinElmer) equipped with environmental control unit, which allowed to keep 37° C., 5% CO2. For two movies that were made, the brightfield images were taken once in 15 minutes during 24 hours after plating using Harmony software (PerkinElmer), exported, and analyzed using ImageJ software (NIH, the US). For migration assay the images were taken every seven minutes during 18 hours after plating. Images acquired between the fifth and seventh hours after plating were analyzed using MTrackJ plug-in (University Medical Center, Rotterdam, The Netherlands). 100 attached cells on each coating were traced and mean distances from the current to the previous point of the track were calculated. Error bars show standard error of the mean s.e.m. (n=100).

hES cells [3] = test: Clonal survival of individualized hES cells (Example 4); type: cell-based, human; details: mTeSR1; 250 cells per cm^2; 5 days; alkaline phosphatase staining
Protocol: hES cells were plated in mTeSR1 medium on different coatings at a density of 250 cells per cm^2 and monitored after 5 days in culture using an alkaline phosphatase staining kit.
Next, combinations of laminin-521 and E-Cadherin were tested to determine whether the combinations could sustain clonal survival of the cells. Fixed amounts of laminin-521 were used for the cell culture dish coating in combination with titrated E-Cadherin.
Additional tests were performed to test the effects of various modifications to the mTeSR1 medium. A mixture of E-Cadherin to laminin-521 in a ratio of about 1:10 w/w was used to coat the plates. […] Time-lapse photography of the cells confirmed that laminin-521/E-Cadherin coatings facilitated cell survival through proliferation of the single cells, not through the aggregation of different cells.

[4] = tested on: human embryonic stem cell; test: Survival after dissociation into single cell suspension (description); type: cell-based; details: O3 medium; 30 Kcells/cm^2; precoated dishes
From the text: In other aspects, the present disclosure provides a new material, isolated laminin-521, which permits human embryonic stem cell survival after dissociation into single cell suspension. The stem cells were dissociated into single cell suspension by Trypsin-EDTA treatment, pelleted by centrifugation, resuspended into O3 medium, filtered through a 40 μm sieve, and plated at a density of 30 Kcells/cm^2 on cell culture dishes precoated by either isolated laminin-521, laminin-511, or Matrigel. After one day in culture, the cells plated on Matrigel died, as is known in the art.

Integrin α6β1 = Integrin α6β1 (Homo sapiens, UniProt P05556+P23229); details: cited from earlier work
Chain of Integrin α6β1 (P23229 24-1130): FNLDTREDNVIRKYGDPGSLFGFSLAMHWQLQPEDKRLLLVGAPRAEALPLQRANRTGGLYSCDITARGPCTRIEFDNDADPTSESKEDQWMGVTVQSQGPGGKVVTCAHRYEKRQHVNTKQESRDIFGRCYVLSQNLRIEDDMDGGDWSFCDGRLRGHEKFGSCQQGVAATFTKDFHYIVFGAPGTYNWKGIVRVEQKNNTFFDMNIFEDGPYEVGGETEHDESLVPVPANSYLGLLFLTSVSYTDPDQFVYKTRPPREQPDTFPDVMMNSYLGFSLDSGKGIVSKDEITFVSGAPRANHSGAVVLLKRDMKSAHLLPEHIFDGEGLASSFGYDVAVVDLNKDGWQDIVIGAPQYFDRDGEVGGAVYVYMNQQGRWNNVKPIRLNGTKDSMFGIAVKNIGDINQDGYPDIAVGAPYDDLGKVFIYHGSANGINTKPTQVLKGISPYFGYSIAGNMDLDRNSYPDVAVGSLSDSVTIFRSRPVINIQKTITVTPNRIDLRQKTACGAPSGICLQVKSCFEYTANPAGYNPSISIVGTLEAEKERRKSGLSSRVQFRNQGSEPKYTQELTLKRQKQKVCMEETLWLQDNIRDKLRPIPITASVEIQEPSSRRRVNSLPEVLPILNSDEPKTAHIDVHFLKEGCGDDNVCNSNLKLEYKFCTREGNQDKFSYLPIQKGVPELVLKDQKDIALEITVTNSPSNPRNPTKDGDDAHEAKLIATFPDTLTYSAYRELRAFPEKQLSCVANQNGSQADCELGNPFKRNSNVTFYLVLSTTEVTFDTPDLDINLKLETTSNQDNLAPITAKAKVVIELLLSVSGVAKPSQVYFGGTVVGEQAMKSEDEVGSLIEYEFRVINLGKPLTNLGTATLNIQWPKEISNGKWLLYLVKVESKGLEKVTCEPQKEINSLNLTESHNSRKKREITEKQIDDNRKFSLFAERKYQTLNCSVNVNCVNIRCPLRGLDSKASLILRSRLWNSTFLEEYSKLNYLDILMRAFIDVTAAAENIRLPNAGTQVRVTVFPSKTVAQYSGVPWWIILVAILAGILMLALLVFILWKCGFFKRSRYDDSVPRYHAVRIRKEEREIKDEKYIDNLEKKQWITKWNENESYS
Chain of Integrin α6β1 (P05556 21-798): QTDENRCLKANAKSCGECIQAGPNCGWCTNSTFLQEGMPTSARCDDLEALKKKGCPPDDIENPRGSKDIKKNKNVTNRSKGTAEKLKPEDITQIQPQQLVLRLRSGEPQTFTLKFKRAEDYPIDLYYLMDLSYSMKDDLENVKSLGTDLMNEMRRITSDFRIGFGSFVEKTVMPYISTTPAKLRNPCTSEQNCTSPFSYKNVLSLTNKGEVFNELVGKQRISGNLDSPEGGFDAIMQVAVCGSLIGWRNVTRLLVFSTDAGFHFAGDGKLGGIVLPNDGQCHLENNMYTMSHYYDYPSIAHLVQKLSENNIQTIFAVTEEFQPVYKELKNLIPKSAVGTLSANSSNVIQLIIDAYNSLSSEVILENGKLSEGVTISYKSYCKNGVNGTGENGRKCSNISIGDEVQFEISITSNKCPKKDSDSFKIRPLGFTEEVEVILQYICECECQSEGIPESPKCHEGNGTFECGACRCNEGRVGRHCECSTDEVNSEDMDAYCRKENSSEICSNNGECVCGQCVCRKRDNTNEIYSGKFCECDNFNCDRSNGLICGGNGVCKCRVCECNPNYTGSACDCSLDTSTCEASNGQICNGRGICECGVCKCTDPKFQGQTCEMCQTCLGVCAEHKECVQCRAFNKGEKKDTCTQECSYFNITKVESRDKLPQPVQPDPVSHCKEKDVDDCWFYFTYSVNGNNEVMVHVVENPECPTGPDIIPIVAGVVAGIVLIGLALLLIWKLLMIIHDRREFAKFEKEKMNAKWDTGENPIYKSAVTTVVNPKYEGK

Substance: LN-521: protein formed by joining α5, β2 and γ1 chains together; human recombinant, produced in HEK293 cells
- adhesion at 1 day without additives compared with dishes including the ROCK inhibitor (HS181 cells; 1 day after plating): similar
- adhesion at 1 day relative to Matrigel without additives (HS181 cells; 1 day after plating, without additives): 20 times
- adhesion at 1 day without additives compared with dishes including the ROCK inhibitor (HS181 cells; 1 day after plating, listed as LN-532): no ROCK inhibitor is necessary
- single cell survival / cells remaining attached 24 hours after plating (HS181 cells; O3 medium without any additives, completely dissociated HS181 cells): survived
- passages in single cell suspension giving the same number of cell divisions as cultures on Matrigel after 20 passages (human ES cells; 3 passages = 1 month, Matrigel passaged in pieces, 20 passages (3 months / 100 days)): 3 passages
- passages with robust proliferation at a stable and high rate (human ES cells; single cell passaging every 10-12 days, 1:25 to 1:30 ratios, 3 months): at least 9 passages
- proliferation rate compared with Matrigel / classical methods (human ES cells): much faster rate
- proliferation rate compared with Matrigel / classical methods (human ES cells; listed as laminin-521): higher rate
- percentage of Oct4 positive (pluripotent) cells compared with Matrigel (OCT4): much higher percentage
- number of mRNA transcripts of Oct4 and Nanog compared with Matrigel (Oct4 and Nanog): higher numbers of transcripts
- passages cultured, ChiPSW cells [1]: 3 passages
- passages cultured, CutB1.2 iPS cells [1]: 5 passages
- migration of cells (in vivo imaging) compared with Matrigel (hES cells [2]): much faster
- motility of hES cells between the fifth and seventh hours after plating (hES cells [2]; compared with Matrigel, LN-111, LN-511): higher than that of the cells on other coatings
- clonal survival of individualized hES cells (hES cells [3]): Neither laminin-521 nor E-Cadherin alone permitted efficient clonal survival
- survival of hES cells plated from single cell suspension after one day in culture [4]: survived and started to proliferate
- binding affinity of integrin α6β1 (Integrin α6β1): higher than that for LN-111
